The results in this text go back to PubChem BioAssay (NCI).

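How tested: cells in 96-well plates exposed to compound for 48 hours at five concentrations. TGI is the concentration that stops growth completely.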 Some results are limits rather than exact numbers.

Test systems include 786-0 renal; OVCAR-3 ovarian; SK-MEL-2 melanoma; RXF 393 renal; SF-268 CNS; MDA-MB-231 breast; A498 renal; ACHN renal; CCRF-CEM leukemia; M14 melanoma; EKVX NSCLC; UACC-62 melanoma; CAKI-1 renal; NCI-H23 lung; PC-3 prostate; SNB-75 CNS; SK-MEL-5 melanoma; NCI/ADR-RES ovarian; SF-295 CNS; SR leukemia.
Holding throughout (assay): NCI-60 cell line screen, 48 h

On to `Cc1cc(O)c(/C=N/C(=S)Nc2ccccc2)c(=O)o1`, for which the TGI in the experiment with 786-0 renal, with OVCAR-3 ovarian, with SK-MEL-2 melanoma, in the experiment with RXF 393 renal, with SF-268 CNS and in the experiment on MDA-MB-231 breast was > 100 µM each time. Besides, the TGI in the experiment with A498 renal, with ACHN renal, with CCRF-CEM leukemia, in the experiment with M14 melanoma, with EKVX NSCLC and in the experiment with UACC-62 melanoma was > 100 µM throughout. In addition, the TGI with CAKI-1 renal, in the experiment with NCI-H23 lung, in the experiment with PC-3 prostate, in the experiment on SNB-75 CNS, in the experiment with SK-MEL-5 melanoma and in the experiment with NCI/ADR-RES ovarian was > 100 µM each time. Also, the TGI with SF-295 CNS was > 100 µM.
With `OC12c3ccccc3C3CCC4(OCCO4)C3C1c1ccccc12` (stereo not drawn), the TGI in the experiment on 786-0 renal, in the experiment on OVCAR-3 ovarian, in the experiment on SK-MEL-2 melanoma, in the experiment on RXF 393 renal, with SF-268 CNS and with A498 renal was > 100 µM throughout. In addition, the TGI in the experiment with ACHN renal, in the experiment with CCRF-CEM leukemia, with M14 melanoma, with EKVX NSCLC, with UACC-62 melanoma and in the experiment on CAKI-1 renal was > 100 µM each time. The TGI with NCI-H23 lung, in the experiment on SNB-75 CNS, with SK-MEL-5 melanoma and with SF-295 CNS was > 100 µM in each case.
As for `Cc1ccc(NC(=O)/C(=N/N(C)C)C(C2OC(=O)c3ccccc32)[N+](=O)[O-])cc1` (stereo not drawn), the TGI with 786-0 renal, with OVCAR-3 ovarian, in the experiment with SK-MEL-2 melanoma, with RXF 393 renal, with SF-268 CNS and in the experiment on MDA-MB-231 breast was > 100 µM each time. For the same compound, the TGI with A498 renal, with ACHN renal, with CCRF-CEM leukemia, in the experiment on M14 melanoma, with UACC-62 melanoma and with CAKI-1 renal was > 100 µM each time. Further, the TGI in the experiment on NCI-H23 lung, in the experiment on PC-3 prostate, in the experiment with SNB-75 CNS, in the experiment with SK-MEL-5 melanoma, with NCI/ADR-RES ovarian and with SF-295 CNS was > 100 µM throughout.
Regarding `O=c1[nH]c(=O)n(C2CC(O)C(CO)O2)cc1C#Cc1ccc(F)cc1` (stereo not drawn), the TGI with 786-0 renal, in the experiment on OVCAR-3 ovarian, with SK-MEL-2 melanoma, in the experiment on SF-268 CNS, in the experiment with ACHN renal and in the experiment on CCRF-CEM leukemia was > 100 µM each time. Further, the TGI in the experiment with M14 melanoma, in the experiment with EKVX NSCLC, in the experiment with UACC-62 melanoma, with CAKI-1 renal, with NCI-H23 lung and in the experiment on SR leukemia was > 100 µM in each case. The TGI with SNB-75 CNS, in the experiment on SK-MEL-5 melanoma and in the experiment on SF-295 CNS was > 100 µM each time.
Regarding `CCOC(=O)/C(=C/c1ccc(N(CCC#N)CCC#N)cc1C)NC(=O)/C=C/c1ccccc1`, the TGI in the experiment with 786-0 renal, in the experiment with OVCAR-3 ovarian, in the experiment on SK-MEL-2 melanoma, with RXF 393 renal, with SF-268 CNS and in the experiment on A498 renal was > 100 µM throughout. Besides, the TGI in the experiment with ACHN renal, with CCRF-CEM leukemia, with M14 melanoma, in the experiment with EKVX NSCLC, in the experiment with UACC-62 melanoma and in the experiment with CAKI-1 renal was > 100 µM throughout. Moreover, the TGI with NCI-H23 lung, with SNB-75 CNS, with SK-MEL-5 melanoma and with SF-295 CNS was > 100 µM in each case.
Turning to `C=CCOC(=O)C1CCC(=O)N1C(=O)C(Cl)Cl` (stereo not drawn), the TGI in the experiment with 786-0 renal, with OVCAR-3 ovarian, with SK-MEL-2 melanoma, in the experiment with SF-268 CNS, with A498 renal and in the experiment with ACHN renal was > 100 µM throughout. In addition, the TGI with CCRF-CEM leukemia, with M14 melanoma, in the experiment with EKVX NSCLC, in the experiment on UACC-62 melanoma, in the experiment on CAKI-1 renal and with NCI-H23 lung was > 100 µM throughout. Further, the TGI in the experiment on SNB-75 CNS, in the experiment with SK-MEL-5 melanoma and in the experiment with SF-295 CNS was > 100 µM in each case.
For the compound `CC1NC(=O)C2=C1C(N)=NC(=O)C2` (stereo not drawn), the TGI in the experiment with 786-0 renal, in the experiment with OVCAR-3 ovarian, in the experiment on SK-MEL-2 melanoma, in the experiment on RXF 393 renal, with SF-268 CNS and in the experiment on ACHN renal was > 100 µM each time. Besides, the TGI in the experiment on M14 melanoma, in the experiment with EKVX NSCLC, in the experiment on UACC-62 melanoma, in the experiment with CAKI-1 renal, with NCI-H23 lung and in the experiment with SR leukemia was > 100 µM each time. The TGI in the experiment with SNB-75 CNS, with SK-MEL-5 melanoma and in the experiment with SF-295 CNS was > 100 µM throughout.
With `CCn1c2c(c3ccccc31)C(c1ccccc1)CC1C(=O)N(c3ccccc3)C(=O)C21` (stereo not drawn), the TGI was > 100 µM in the experiment with 786-0 renal; > 100 µM in the experiment on OVCAR-3 ovarian; > 100 µM with SK-MEL-2 melanoma; > 100 µM in the experiment with SF-268 CNS; 30.6 µM with A498 renal; > 100 µM with ACHN renal. In addition, the TGI in the experiment on CCRF-CEM leukemia, with M14 melanoma, with EKVX NSCLC, with UACC-62 melanoma, in the experiment with CAKI-1 renal and with NCI-H23 lung was > 100 µM in each case. For the same compound, the TGI in the experiment with SNB-75 CNS is 59.6 µM; in the experiment with SK-MEL-5 melanoma, > 100 µM; in the experiment on SF-295 CNS, > 100 µM.
Turning to `CC(=O)N(O)Cc1ccccc1`, the TGI in the experiment with 786-0 renal, with OVCAR-3 ovarian, in the experiment with RXF 393 renal, in the experiment on SF-268 CNS, in the experiment with ACHN renal and with CCRF-CEM leukemia was > 100 µM each time. The TGI with M14 melanoma, in the experiment on UACC-62 melanoma, in the experiment on CAKI-1 renal, with NCI-H23 lung, with SR leukemia and in the experiment with SNB-75 CNS was > 100 µM in each case. Moreover, the TGI in the experiment with SK-MEL-5 melanoma and with SF-295 CNS was > 100 µM in each case.
